Source: ChEMBL document CHEMBL5537138, “Identification of a novel potent CDK inhibitor degrading cyclinK with a superb activity to reverse trastuzumab-resistance in HER2-positive breast cancer in vivo” (Eur J Med Chem, 2024)

Test: in vitro
Conditions: PAMPA
Description: Permeability of compound at 12.5 uM incubated for 4 hrs by GIT PAMPA assay

CCn1cnc2c(NCc3ccc(-c4ccoc4)nc3)nc(-c3cccnc3)nc21
Papp at 4 h, 12.5 µM: 72.4 ×10⁻⁶ cm/s
